The source of these data is patent US10640520B2, “Boronic acid derivatives” (MERCK PATENT GMBH, priority 2014, dated 2020).

One may read the IC50 as the concentration that inhibits the measured activity by half. A high value points to weaker potency in that assay.

Some results are limits rather than exact numbers.

For one assay, the target named is Beta5 (Homo sapiens, UniProt P20618+P28074). In words: Determination of Beta5 activity (fluorescence intensity assay, Suc-LLVY-AMC). The format is biochemical. The settings on record: for IC50: purified human constitutive proteasome. As for the experimental part:
Determination of Beta5 Activity:
Measurement of Beta5 inhibition is performed in 384 well format based on fluorescence intensity assay.
(§1) Purified human constitutive proteasome (1.25 nM) and serial diluted compounds in DMSO (range of concentrations from 30 μM to 15 μM) or controls are incubated for 20 minutes or 120 minutes (long incubation) at 25° C. in assay buffer containing 50 mM Tris pH 7.4, 0.03% SDS, 1 mM EDTA and 1% DMSO. The reaction is initiated by the addition of the fluorogenic peptide substrate, Suc-LLVY-AMC (Bachem 1-1395), at a concentration of 40 μM. After 60 minutes of incubation at 37° C., fluorescence intensity is measured at λex=350 nm and λem=450 nm with a fluorescence reader (Perkin Elmer Envision reader or equivalent).
(§2) Unless indicated otherwise the results are obtained after incubation for 20 minutes.

The target of another assay is LMP7 (Homo sapiens, UniProt P20618+P28062). Put plainly: Determination of LMP7 activity (fluorescence intensity assay, Suc-LLVY-AMC). The format is biochemical. The settings on record: purified human immunoproteasome. How it is done: Determination of LMP7 Activity:
Measurement of LMP7 inhibition is performed in 384 well format based on fluorescence intensity assay.
as §1, with “immunoproteasome (0.25” for “constitutive proteasome (1.25”, “pM)” for “μM)”
as §2

Assay [1] has as its target LMP7 subunit of the immunoproteasome (Homo sapiens, UniProt P20618+P28062). The settings on record: Singh et al., Br. J. Hematology 152(2): 155-163; cited from earlier work.

For `O=C(CCN1C(=O)CCCC1=O)N[C@@H](Cc1ccccc1)B(O)O` [Compound 5, [(1R)-1-[3-(2,6-dioxo-1-piperidyl)propanoylamino]-2-phenyl-ethyl]-boronic acid], the “Selectivity LMP7 vs Beta5” value on Beta5 (incubation for 20 minutes) is given as “+++ (30 ≤ Selectivity < 50)”. Moreover, the IC50 is more than 5000 nM against Beta5 (incubation for 20 minutes) and 500 to 5000 nM on LMP7 (incubation for 20 minutes).

For `Cc1ccc(C[C@H](NC(=O)CCN2CCCCC2=O)B(O)O)cc1C` [Compound 25, [(1R)-2-(3,4-dimethylphenyl)-1-[3-(2-oxo-1-piperidyl)propanoylamino]-ethyl]boronic acid], at Beta5 (incubation for 20 minutes), the “Selectivity LMP7 vs Beta5” value is given as “+++++ (Selectivity ≥ 70)” and the IC50 was in the range of 500 to 5000 nM. This compound also showed a concentration for half-maximal inhibition (IC50) at LMP7 (incubation for 20 minutes) of less than 50 nM.

On to `O=C(CCN1CCCC1=O)N[C@H](Cc1ccccc1)B(O)O` [Compound 2, [(1S)-1-[3-(2-oxopyrrolidin-1-yl)propaqanoylamino]-2-phenyl-ethyl]-boronic acid], for which, on Beta5 (incubation for 20 minutes), the “Selectivity LMP7 vs Beta5” value is on record as “+++ (30 ≤ Selectivity < 50)” and the IC50 fell in the range of 500 to 5000 nM. At LMP7 (incubation for 20 minutes), the half-maximal inhibitory concentration (IC50) was less than 50 nM.

In the case of `O=C(CCN1CCCCS1(=O)=O)N[C@@H](Cc1coc2ccccc12)B(O)O` [Compound 26, [(1R)-2-(benzofuran-3-yl)-1-[3-(1,1-dioxothiazinan-2-yl)propanoylamino]ethyl]boronic acid], at Beta5 (incubation for 20 minutes), the “Selectivity LMP7 vs Beta5” value is on record as “+++ (30 ≤ Selectivity < 50)” and the IC50 is 50 to 500 nM. Further, the IC50 on LMP7 (incubation for 20 minutes) was less than 50 nM.

Take `O=C(CCN1CC(c2ccccc2)OC1=O)N[C@@H](Cc1coc2ccccc12)B(O)O` (stereo partly drawn) [Compound 29, [(1R)-2-(benzofuran-3-yl)-1-[3-(2-oxo-5-phenyl-oxazolidin-3-yl)propanoylamino]ethyl]boronic acid]: the “Selectivity LMP7 vs Beta5” value at Beta5 (incubation for 20 minutes) is listed as “++ (10 ≤ Selectivity < 30)”. Moreover, the 50% inhibitory concentration (IC50) against Beta5 (incubation for 20 minutes) and on LMP7 (incubation for 20 minutes) was less than 50 nM in each case.

For the compound `O=C(CCN1CCCC1=O)N[C@@H](Cc1coc2ccccc12)B(O)O` [Compound 19, [(1R)-2-(benzofuran-3-yl)-1-[3-(2-oxopyrrolidin-1-yl)propanoylamino]-ethyl]boronic acid], on Beta5 (incubation for 20 minutes), the “Selectivity LMP7 vs Beta5” value is given as “++++ (50 ≤ Selectivity < 70)” and the IC50 fell in the range of 50 to 500 nM. The compound also displayed an IC50 against LMP7 (incubation for 20 minutes) of less than 50 nM.

On to `Cc1ccc(C[C@H](NC(=O)CCN2CCCC2=O)B(O)O)cc1C` [Compound 16, [(1R)-2-(3,4-dimethylphenyl)-1-[3-(2-oxopyrrolidin-1-yl)propanoylamino]ethyl]boronic acid], for which, at Beta5 (incubation for 20 minutes), the “Selectivity LMP7 vs Beta5” value is “+++++ (Selectivity ≥ 70)” and the IC50 lay in the range of 500 to 5000 nM. The half-inhibitory concentration (IC50) at LMP7 (incubation for 20 minutes) was less than 50 nM.

Regarding `Cc1cccc2c1OC[C@H]2C[C@H](NC(=O)CCN1CCCCC1=O)B(O)O` [Compound 40, [(1R)-2-[(3S)-7-methyl-2,3-dihydrobenzofuran-3-yl]-1-[3-(2-oxo-1-piperidyl)propanoylamino]ethyl]boronic acid], on Beta5 (long incubation (120 min)), the “Selectivity LMP7 vs Beta5” value is on record as “+++++ (Selectivity ≥ 70)” and the IC50 is more than 5000 nM. This compound displayed an IC50 at LMP7 (long incubation (120 min)) of less than 50 nM.

With `CC1=C(C(=O)N[C@H](C)C(=O)N[C@@H](Cc2c[nH]c3ccccc23)C(=O)N[C@@H](Cc2ccccc2)C(=O)[C@@]2(C)CO2)Cc2ccccc21` [PR-924], the “selectivity for the LMP7 subunit of the immunoproteasome” value in assay [1] is 100 fold.

On to `O=C(N[C@@H](Cc1coc2ccccc12)B(O)O)C1CCCN1c1ccccc1` (stereo partly drawn) [Compound 37, [(1R)-2-(benzofuran-3-yl)-1-[(1-phenylpyrrolidine-2-carbonyl)amino]ethyl]boronic acid], for which, at Beta5 (incubation for 20 minutes), the “Selectivity LMP7 vs Beta5” value is “+++++ (Selectivity ≥ 70)” and the IC50 was 500 to 5000 nM. The same compound yielded a 50% inhibitory concentration (IC50) against LMP7 (incubation for 20 minutes) of less than 50 nM.

With `O=C(CCN1CCCCC1=O)N[C@@H](Cc1coc2ccccc12)B(O)O` [Compound 24, [(1R)-2-(benzofuran-3-yl)-1-[3-(2-oxo-1-piperidyl)propanoylamino]-ethyl]boronic acid], the “Selectivity LMP7 vs Beta5” value on Beta5 (incubation for 20 minutes) is “+++ (30 ≤ Selectivity < 50)”. Also, the IC50 on Beta5 (incubation for 20 minutes) was 50 to 500 nM; on LMP7 (incubation for 20 minutes) it was less than 50 nM.

With `Cc1ccc(C[C@H](NC(=O)CCN2C(=O)CCC2(C)C)B(O)O)cc1` [Compound 18, [(1R)-1-[3-(2,2-dimethyl-5-oxo-pyrrolidin-1-yl)propanoylamino]-2-(p-tolyl)ethyl]boronic acid], on Beta5 (incubation for 20 minutes), the “Selectivity LMP7 vs Beta5” value is reported as “+++ (30 ≤ Selectivity < 50)” and the half-inhibitory concentration (IC50) was in the range of 500 to 5000 nM. The compound further had an IC50 against LMP7 (incubation for 20 minutes) of 50 to 500 nM.

As to `O=C(CCN1CCCCC1=O)N[C@@H](Cc1ccc2ccccc2c1)B(O)O` [Compound 7, [(1R)-2-(2-naphthyl)-1-[3-(2-oxo-1-piperidyl)propanoylamino]ethyl]-boronic acid], at Beta5 (incubation for 20 minutes), the “Selectivity LMP7 vs Beta5” value is recorded as “++ (10 ≤ Selectivity < 30)” and the concentration for half-maximal inhibition (IC50) lay within 50 to 500 nM. Also, the IC50 against LMP7 (incubation for 20 minutes) was less than 50 nM.

For `O=C(CCN1CCCC1=O)N[C@@H](Cc1ccc2c(c1)OCCO2)B(O)O` [Compound 8, [(1R)-2-(2,3-dihydro-1,4-benzodioxin-6-yl)-1-[3-(2-oxopyrrolidin-1-yl)propanoylamino]ethyl]boronic acid], the “Selectivity LMP7 vs Beta5” value on Beta5 (incubation for 20 minutes) is “+++ (30 ≤ Selectivity < 50)”. Moreover, the IC50 against Beta5 (incubation for 20 minutes) is 500 to 5000 nM; on LMP7 (incubation for 20 minutes), less than 50 nM.

With `CC1(C)CCC(=O)N1CCC(=O)N[C@@H](Cc1coc2ccccc12)B(O)O` [Compound 27, [(1R)-2-(benzofuran-3-yl)-1-[3-(2,2-dimethyl-5-oxo-pyrrolidin-1-yl)propanoylamino]ethyl]boronic acid], the “Selectivity LMP7 vs Beta5” value at Beta5 (incubation for 20 minutes) is reported as “+++++ (Selectivity ≥ 70)”. Moreover, the IC50 at Beta5 (incubation for 20 minutes) is 500 to 5000 nM; at LMP7 (incubation for 20 minutes), less than 50 nM.

In the case of `Cc1ccc(C[C@H](NC(=O)CC[C@@H]2NC(=O)NC2=O)B(O)O)cc1` [Compound 23, [(1R)-1-[3-[(4S)-2,5-dioxoimidazolidin-4-yl]propanoylamino]-2-(p-tolyl)ethyl]boronic acid], on Beta5 (incubation for 20 minutes), the “Selectivity LMP7 vs Beta5” value is on record as “++ (10 ≤ Selectivity < 30)” and the IC50 was 500 to 5000 nM. The IC50 on LMP7 (incubation for 20 minutes) is less than 50 nM.

With `COCc1ccc(C[C@H](NC(=O)CCN2CCCC2=O)B(O)O)cc1` [Compound 20, [(1R)-2-[4-(methoxymethyl)phenyl]-1-[3-(2-oxopyrrolidin-1-yl)propanoylamino]ethyl]boronic acid], the “Selectivity LMP7 vs Beta5” value at Beta5 (incubation for 20 minutes) is listed as “++ (10 ≤ Selectivity < 30)”. The values for the half-maximal inhibitory concentration (IC50) against Beta5 (incubation for 20 minutes) and at LMP7 (incubation for 20 minutes) were 500 to 5000 nM and 50 to 500 nM, respectively.
